Measured values: patent US20240018123A1, “COMPOUND FOR INHIBITING OR DISINTEGRATING ANDROGEN RECEPTOR, AND PHARMACEUTICAL USE THEREOF” (KOREA RESEARCH INSTITUTE OF CHEMICAL TECHNOLOGY, priority 2020, published 2024)

Tests used:
Androgen receptor (AR) = target: T1, Androgen receptor (AR) (Homo sapiens, UniProt P10275, T878A); test: Assessment of AR proteolytic activity (Western blotting of LNCap cell lysates); type: cell-based; conditions: 24 hours of treatment, Western blotting quantified with Image J
T1 construct: 5.5×10^5 LNCap cells were injected into each well of a 6-well plate; endogenous in cells; host or cells: LNCaP
T1 sequence (P10275 1-920 T878A): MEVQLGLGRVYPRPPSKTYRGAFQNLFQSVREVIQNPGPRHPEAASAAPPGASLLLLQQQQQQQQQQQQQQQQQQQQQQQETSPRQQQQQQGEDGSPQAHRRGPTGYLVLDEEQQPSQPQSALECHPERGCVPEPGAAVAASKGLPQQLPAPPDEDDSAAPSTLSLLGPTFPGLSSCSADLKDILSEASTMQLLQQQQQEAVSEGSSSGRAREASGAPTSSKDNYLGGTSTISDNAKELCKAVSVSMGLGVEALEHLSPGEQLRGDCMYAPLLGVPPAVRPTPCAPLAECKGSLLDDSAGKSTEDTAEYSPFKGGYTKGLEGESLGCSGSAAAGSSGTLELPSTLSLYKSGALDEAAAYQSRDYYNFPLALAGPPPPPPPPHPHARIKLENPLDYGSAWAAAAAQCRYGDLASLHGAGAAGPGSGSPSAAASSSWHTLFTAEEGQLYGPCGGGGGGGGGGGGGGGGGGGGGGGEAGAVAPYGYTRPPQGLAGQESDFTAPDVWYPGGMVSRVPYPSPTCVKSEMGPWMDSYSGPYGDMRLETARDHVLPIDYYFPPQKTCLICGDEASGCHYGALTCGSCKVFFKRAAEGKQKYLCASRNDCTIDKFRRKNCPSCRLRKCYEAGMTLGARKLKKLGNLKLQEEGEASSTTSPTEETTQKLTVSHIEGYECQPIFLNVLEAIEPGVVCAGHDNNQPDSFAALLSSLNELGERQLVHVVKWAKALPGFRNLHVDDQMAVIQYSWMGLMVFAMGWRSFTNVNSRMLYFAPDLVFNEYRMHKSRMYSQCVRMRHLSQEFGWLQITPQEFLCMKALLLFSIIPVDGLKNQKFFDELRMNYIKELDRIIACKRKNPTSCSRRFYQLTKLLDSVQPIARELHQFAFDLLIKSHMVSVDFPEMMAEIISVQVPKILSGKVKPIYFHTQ
Procedure, shortened: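 LNCap cells seeded at 5.5×10^5 per well and treated with compound for 24 hours. Lysates prepared in RIPA buffer (pH 7.5, with protease inhibitors). AR protein levels assessed by Western blot with densitometric quantification.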

Method for VCaP cells: In order to evaluate the androgen receptor (AR) cytotoxicity of the compounds according to the present invention, the following experiment was conducted. Specifically, 1.5×10^3 (LNCaP) or 4×10^3 (VCaP, 22RV1), respectively, of LNCaP, VCaP, and 22RV1 cells were injected into each well of a 96-well plate. The next day, each well was treated with the compound at a final concentration of 3 nM, 10 nM, 30 nM, 100 nM, 300 nM, 1 μM, 3 μM, and 10 μM. […] After 6 days of treatment, Cell-titer-glo (promega) was treated and reacted for 10 minutes, and cell viability was measured with a multimode plate reader (PerkinElmer, Inc.), and the change was quantified compared to when DMSO was treated.

| Compound | Degradation (1 μM treated in LNCaP, % AR remaining) (Androgen receptor (AR)) | CC50 (VCaP cells) |
| --- | --- | --- |
| CC1(C)C(NC(=O)c2ccc(-n3cc(CC4CCN(C(=O)C5CN(c6ccc7nnn(C8CCC(=O)NC8=O)c(=O)c7c6)C5)CC4)nn3)cc2)C(C)(C)C1Oc1ccc(C#N)c(Cl)c1 (stereo not shown) [Example 90, N-((1r,3r)-3-(3-chloro-4-cyanophenoxy)-2,2,4,4-tetramethylcyclobutyl)-4-(4-((1-(1-(3-(2,6-dioxopiperidin-3-yl)-4-oxo-3,4-dihydrobenzo[d][1,2,3]triazin-6-yl)azetidine-3-carbonyl)piperidin-4-yl)methyl)-1H-1,2,3-triazol-1-yl)benzamide] | 5% | 19.6 nM |
| CC1(C)C(NC(=O)c2ccc(C3CCN(CCOC4CCN(C(=O)C5CN(c6ccc7nnn(C8CCC(=O)NC8=O)c(=O)c7c6)C5)CC4)CC3)cc2)C(C)(C)C1Oc1ccc(C#N)c(Cl)c1 (stereo not shown) [Example 75, N-((1r,3r)-3-(3-chloro-4-cyanophenoxy)-2,2,4,4-tetramethylcyclobutyl)-4-(1-(2-((1-(1-(3-(2,6-dioxopiperidin-3-yl)-4-oxo-3,4-dihydrobenzo[d][1,2,3]triazin-6-yl)azetidine-3-carbonyl)piperidin-4-yl)oxy)ethyl)piperidin-4-yl)benzamide] | 9% | 30.1 nM |
| CC1(C)C(NC(=O)c2ccc(N3CC4CC3CN4CC3CCN(c4ccc5nnn(C6CCC(=O)NC6=O)c(=O)c5c4)CC3)cc2)C(C)(C)C1Oc1ccc(C#N)c(Cl)c1 (stereo not shown) [Example 72, N-((1r,3r)-3-(3-chloro-4-cyanophenoxy)-2,2,4,4-tetramethylcyclobutyl)-4-(5-((1-(3-(2,6-dioxopiperidin-3-yl)-4-oxo-3,4-dihydrobenzo[d][1,2,3]triazin-6-yl)piperidin-4-yl)methyl)-2,5-diazabicyclo[2.2.1]heptan-2-yl)benzamide] | 92% | 263 nM |
| CC1(C)C(NC(=O)c2ccc(N3CCN(CCCOC4CCN(C(=O)C5CN(c6ccc7nnn(C8CCC(=O)NC8=O)c(=O)c7c6)C5)CC4)CC3)cc2)C(C)(C)C1Oc1ccc(C#N)c(Cl)c1 (stereo not shown) [Example 36, N-((1r,3r)-3-(3-chloro-4-cyanophenoxy)-2,2,4,4-tetramethylcyclobutyl)-4-(4-(3-((1-(1-(3-(2,6-dioxopiperidin-3-yl)-4-oxo-3,4-dihydrobenzo[d][1,2,3]triazin-6-yl)azetidine-3-carbonyl)piperidin-4-yl)oxy)propyl)piperazin-1-yl)benzamide] | 9.8% | 36.5 nM |
| CC1(C)C(NC(=O)c2ccc(N3CCN(C=C4CCN(c5ccc6nnn(C7CCC(=O)NC7=O)c(=O)c6c5)CC4)CC3)cc2)C(C)(C)C1Oc1ccc(C#N)c(Cl)c1 (stereo not shown) [Example 64, N-((1r,3r)-3-(3-chloro-4-cyanophenoxy)-2,2,4,4-tetramethylcyclobutyl)-4-(4-((1-(3-(2,6-dioxopiperidin-3-yl)-4-oxo-3,4-dihydrobenzo[d][1,2,3]triazin-6-yl)piperidin-4-ylidene)methyl)piperazin-1-yl)benzamide] | 56% | 76.2 nM |
| [C-]#[N+]c1ccc(OC2C(C)(C)C(NC(=O)c3ccc(N4CCN(CCc5cn(-c6ccc7nnn(C8CCC(=O)NC8=O)c(=O)c7c6)nn5)CC4)cc3)C2(C)C)cc1Cl (stereo not shown) [Example 77, N-((1r,3r)-3-(3-chloro-4-isocyanophenoxy)-2,2,4,4-tetramethylcyclobutyl)-4-(4-(2-(1-(3-(2,6-dioxopiperidin-3-yl)-4-oxo-3,4-dihydrobenzo[d][1,2,3]triazin-6-yl)-1H-1,2,3-triazol-4-yl)ethyl)piperazin-1-yl)benzamide] | 74% | 46.6 nM |
| CC1(C)C(NC(=O)c2ccc(C#CCC3CCN(C(=O)C4CN(c5ccc6nnn(C7CCC(=O)NC7=O)c(=O)c6c5)C4)CC3)cc2)C(C)(C)C1Oc1ccc(C#N)c(Cl)c1 (stereo not shown) [Example 87, N-((1r,3r)-3-(3-chloro-4-cyanophenoxy)-2,2,4,4-tetramethylcyclobutyl)-4-(3-(1-(1-(3-(2,6-dioxopiperidin-3-yl)-4-oxo-3,4-dihydrobenzo[d][1,2,3]triazin-6-yl)azetidine-3-carbonyl)piperidin-4-yl)prop-1-yn-1-yl)benzamide] | 9% | 31.9 nM |
| CC1(C)C(NC(=O)c2ccc(C#CCC3CCN(c4ccc5nnn(C6CCC(=O)NC6=O)c(=O)c5c4)CC3)cc2)C(C)(C)C1Oc1ccc(C#N)c(Cl)c1 (stereo not shown) [Example 85, N-((1r,3r)-3-(3-chloro-4-cyanophenoxy)-2,2,4,4-tetramethylcyclobutyl)-4-(3-(1-(3-(2,6-dioxopiperidin-3-yl)-4-oxo-3,4-dihydrobenzo[d][1,2,3]triazin-6-yl)piperidin-4-yl)prop-1-yn-1-yl)benzamide] | 21% | 171 nM |
| CC1(C)C(NC(=O)c2ccc(N3CCN(CC4CCN(CC5CCN(c6ccc7nnn(C8CCC(=O)NC8=O)c(=O)c7c6)CC5)CC4)CC3)cc2)C(C)(C)C1Oc1ccc(C#N)c(Cl)c1 (stereo not shown) [Example 70, N-((1r,3r)-3-(3-chloro-4-cyanophenoxy)-2,2,4,4-tetramethylcyclobutyl)-4-(4-((1-((1-(3-(2,6-dioxopiperidin-3-yl)-4-oxo-3,4-dihydrobenzo[d][1,2,3]triazin-6-yl)piperidin-4-yl)methyl)piperidin-4-yl)methyl)piperazin-1-yl)benzamide] | 99% | 205 nM |

Continued, in another order:

| Degradation (1 μM treated in LNCaP, % AR remaining) (Androgen receptor (AR)) | Compound | CC50 (VCaP cells) |
| --- | --- | --- |
| 21.3% | CC1(C)C(NC(=O)c2ccc(N3CCN(CC4(O)CCN(C(=O)C5CN(c6ccc7nnn(C8CCC(=O)NC8=O)c(=O)c7c6)C5)CC4)CC3)cc2)C(C)(C)C1Oc1ccc(C#N)c(Cl)c1 (stereo not shown) [Example 56, N-((1r,3r)-3-(3-chloro-4-cyanophenoxy)-2,2,4,4-tetramethylcyclobutyl)-4-(4-((1-(1-(3-(2,6-dioxopiperidin-3-yl)-4-oxo-3,4-dihydrobenzo[d][1,2,3]triazin-6-yl)azetidine-3-carbonyl)-4-hydroxypiperidin-4-yl)methyl)piperazin-1-yl)benzamide] | 36.1 nM |
| 33.6% | CC1(C)C(NC(=O)c2ccc(N3CCN(C(=O)C4CN(c5ccc6nnn(C7CCC(=O)NC7=O)c(=O)c6c5)C4)CC3)cc2)C(C)(C)C1Oc1ccc(C#N)c(Cl)c1 (stereo not shown) [Example 43, N-((1r,3r)-3-(3-chloro-4-cyanophenoxy)-2,2,4,4-tetramethylcyclobutyl)-4-(4-(1-(3-(2,6-dioxopiperidin-3-yl)-4-oxo-3,4-dihydrobenzo[d][1,2,3]triazin-6-yl)azetidine-3-carbonyl)piperazin-1-yl)benzamide] | 37.3 nM |
| 7.7% | CC1(C)[C@H](NC(=O)c2ccc(N3CCN(CC4(O)CCN(C(=O)COc5ccc6nnn(C7CCC(=O)NC7=O)c(=O)c6c5)CC4)CC3)cc2)C(C)(C)[C@H]1Oc1ccc(C#N)c(Cl)c1 (stereo partly shown) [Example 54, N-((1r,3r)-3-(3-chloro-4-cyanophenoxy)-2,2,4,4-tetramethylcyclobutyl)-4-(4-((1-(2-((3-(2,6-dioxopiperidin-3-yl)-4-oxo-3,4-dihydrobenzo[d][1,2,3]triazin-6-yl)oxy)acetyl)-4-hydroxypiperidin-4-yl)methyl)piperazin-1-yl)benzamide] | 553 nM |
| 21.1% | CC1(C)C(NC(=O)c2ccc(N3CCN(CCCC4CCN(C(=O)COc5ccc6nnn(C7CCC(=O)NC7=O)c(=O)c6c5)CC4)CC3)cc2)C(C)(C)C1Oc1ccc(C#N)c(Cl)c1 (stereo not shown) [Example 45, N-((1r,3r)-3-(3-chloro-4-cyanophenoxy)-2,2,4,4-tetramethylcyclobutyl)-4-(4-(3-(1-(2-((3-(2,6-dioxopiperidin-3-yl)-4-oxo-3,4-dihydrobenzo[d][1,2,3]triazin-6-yl)oxy)acetyl)piperidin-4-yl)propyl)piperazin-1-yl)benzamide] | 46.6 nM |
| 20.3% | CC1(C)C(NC(=O)c2ccc(N3CCN(CC4CCN(CCNC(=O)COc5ccc6nnn(C7CCC(=O)NC7=O)c(=O)c6c5)CC4)CC3)cc2)C(C)(C)C1Oc1ccc(C#N)c(Cl)c1 (stereo not shown) [Example 60, N-((1r,3r)-3-(3-chloro-4-cyanophenoxy)-2,2,4,4-tetramethylcyclobutyl)-4-(4-((1-(2-(2-((3-(2,6-dioxopiperidin-3-yl)-4-oxo-3,4-dihydrobenzo[d][1,2,3]triazin-6-yl)oxy)acetamido)ethyl)piperidin-4-yl)methyl)piperazin-1-yl)benzamide] | 3280 nM |
